Results reported in patent publication US20150216921A1, “BASE POWDER FROM THE RED RASPBERRY RUBUS IDAEUS AND ACTIVATED MICRONIZED ZEOLITE FOR ATTENUATING NICOTINE ADDICTION, METHOD FOR THE PREPARATION THEREOF AND USE THEREOF” (University fo Hidalgo, priority 2011, published 2015).

What was measured:
[1] = tested on: lung tumorogenesis of benzo [a] pyrene; settings: cited from earlier work
[2] = tested on: nicotine addiction; test: Site selectivity paradigm, nicotine addiction; assay type: in vivo; settings: mice conditioned by nicotine
Source text: (§1) 7. Using raspberry powder and pure ellagic acid (Sigma Aldrich) two experiments in mice were developed, one was to evaluate the effect of those in the anxiety caused by nicotine withdraw syndrome; and the other was to evaluate the nicotine addiction. Based on the process mentioned in the Mexican Institute of Industrial Property in patent application number Mx/a/2010/000827 record dated 21/ENE/2010, folio MX/E/2010/004489. In the first case the high-cross test was used and in the second test site selectivity paradigm. Nicotine was administered to mice for 14 consecutive days and when it was suspended, anxiety was developed.

[3] = tested on: anxiety caused by nicotine withdraw syndrome; test: High-cross test, anxiety caused by nicotine withdraw syndrome; assay type: in vivo; settings: mice, nicotine for 14 consecutive days then suspended
Source text: as §1

[4] = tested on: tumorigenicity of the nitrosamine NNK; settings: dose of 4g/kg; cited from earlier work
[5] = tested on: smoking; test: Smoking cessation and follow-up by telephone; assay type: in vivo, humans
Source text: (§2) 9. Treatment 1:—Two persons, a person and a person […], used ZAM ® (activated and micronized zeolite) at doses of 5 g daily during 14 days.
(§3) 10. Treatment 2:—Two persons, a person and a person […], used the raspberry powder recorded in January 2010 in the Mexican Institute of Industrial Property (patent application number record Mx/ a/2010/ 000827, at folio MX/E/2010/004489). At a dose of 5 g per day during 14 days.
(§4) 11. Treatment 3: A person, a person used a commercial product of raspberry, with similar characteristics to the raspberry powder, mentioned in the previous section, in combination with ZAM® (activated and micronized zeolite) at dose of 5 g per day.
(§5) 12. Treatment 4: Two persons, a person and a person, used raspberry powder registered in the patent application number Mx/a/2010/000827, folio MX/E/2010/004489) in combination with ZAM® (micronized and activated zeolite) in a dose of 7 g per day during 14 days.
(§6) 13. Treatment 5:—A person used varenicline, commercial brand, at dose of 1 mg twice daily during 7 days, then 0.5 mg daily for the next 3 days; continuing with 0.5 mg twice a day during 4 days, and finally 1 mg during 1 day, every 12 h. This cycle was repeated 12 weeks. Treatment 5.

[6] = tested on: anxiety (withdrawal syndrome); test: Hamilton Anxiety Scale in persons quitting smoking; assay type: in vivo, humans; settings: one person, 12 weeks treatment
Source text: as §2, §3, §4, §5
13. […]
14. Anxiety was assessed by the Hamilton Anxiety Scale (Hamilton, 1969; Bulbena, 2000; APA, 2000) and the degree of nicotine dependence with Fagerstrom test (1991). […]
16. 14 scale items were evaluated, 13 related to anxiety symptoms and signs, and the last item values the patient's behavior during the assessment interview. […]
17. The physician scored from 0 to 4 points each item, assessing both the intensity and the frequency of it. […]

[7] = tested on: physical dependence on nicotine; test: Fagerstrom test, degree of nicotine dependence; assay type: in vivo, humans; settings: persons quitting smoking, at end of treatment
Source text: as §2, §3, §4, §5, §6
14. Anxiety was assessed by the Hamilton Anxiety Scale (Hamilton, 1969; Bulbena, 2000; APA, 2000) and the degree of nicotine dependence with Fagerstrom test (1991).
25. […]

SMILES	effect against tumorogenesis in lung of benzo [a] pyrene ([1]; intra peritoneal injection)	inhibition in the lung tumorogenesis of benzo [a] pyrene ([1]; mice feed by EA at a dose of 400 mg/kg)	nicotine-conditioned behavior [2]	signs related to anxiety caused by the refraining from exposure to nicotine [3]	inhibition of tumor multiplicity [4]	relapse a month after the treatment ([5]; monitoring by telephone, 1 month after treatment ends)	smoking cessation during treatment period ([5]; persons, during treatment / proposed period)	Hamilton Anxiety Scale, anxiety during the first month of treatment [6]	Hamilton Anxiety Scale, anxiety during the second and third month [6]	Fagerstrom test, physical dependence after treatment [7]
O=c1oc2c(O)c(O)cc3c(=O)oc4c(O)c(O)cc1c4c23 [ellagic acid, 2,3,7, 8—tetrahidrobenzopirano [5,4, 3—cde] benzopiran-5-10 diona]	not effective	90%	modulate this behavior in a significant way	significantly reduce	54%	–	–	–	–	–
c1cnc2cc3c(cc2n1)[C@@H]1CNC[C@H]3C1 [varenicline]	–	–	–	–	–	fall smoking again	quit smoking in the second month of treatment	less anxiety	increased anxiety	high (The Smokers with 6 or 7 points suffer high physical dependence)
